System: moderate-to-severe chronic spontaneous urticaria (CSU)
Assay: Phase 2 CSU study: urticaria activity score over 7 days (UAS7)
Type: in vivo, human
Conditions: ITT, 400 mg QPM
Text: The study comprises a 12 week, randomized, double-blind, placebo-controlled, multi-center, dose-ranging efficacy and safety phase, followed by a 40 week open label extension (OLE) phase (see FIG. 1). The study consists of three phases and an optional OLE phase. […] Clinically, CSU is characterized by the spontaneous and recurrent appearance of pruritic hives. The proposed primary endpoints were the UAS7 at Week 12 in EU and EU reference countries and the ISS7 in the US. Regardless of where a participant was from, all assessments were the same. The UAS7 score is a composite score containing both the HSS7 and the ISS7. This allowed a global assessment of the two key components of urticaria: hives and itch. […] The UAS is a validated PRO measure. […] The daily UAS scores range from 0 to 6 point/day. […] Patients were to complete the UAS using the e-diary. […] The following secondary endpoints were to be analyzed using the same approach as for the primary endpoint: • Change from baseline in UAS7 at Week 4 • Change from baseline in UAS7 at Week 12 (for US and US reference countries) • Change from baseline in ISS7 at Week 12 (except US and US reference countries) • Change from baseline in HSS7 at Week 12 The following responder secondary endpoints were to be analyzed using the Cochran-Mantel-Haenszel test adjusted by region: • Proportion of participants with UAS7<6 at Week 12 • Proportion of participants with UAS7=0 at Week 12 Participants who received selected prohibited medications and/or rescue medications were to be considered as non-responders for time points after the medication usage. For other participants, all available data including those collected during the off-treatment period were to be used to determine the responder/non-responder status. Missing data were to be considered as non-responders.

## CC(C)(C=C(C#N)C(=O)N1CCC[C@@H](n2nc(-c3ccc(Oc4ccccc4)cc3F)c3c(N)ncnc32)C1)N1CCN(C2COC2)CC1 [rilzabrutinib, (R)-2-[3-[4-amino-3-(2-fluoro-4-phenoxy-phenyl)pyrazolo[3,4-d]pyrimidin-1-yl]piperidine-1-carbonyl]-4-methyl-4-[4-(oxetan-3-yl)piperazin-1-yl]pent-2-enenitrile]
Week 6
  Non-responder n (%), UAS7 = 0: 37 (97.4) n (%)
  Non-responder n (%), UAS7 ≤6: 35 (92.1) n (%)
  OR for rilzabrutinib vs. placebo, UAS7 = 0: 1.000
  OR for rilzabrutinib vs. placebo, UAS7 ≤6: 0.540
  RRD (%) for rilzabrutinib vs. placebo, UAS7 = 0: 0.0 %
  RRD (%) for rilzabrutinib vs. placebo, UAS7 ≤6: −6.3%
  Responder n (%), UAS7 = 0: 1 (2.6) n (%)
  Responder n (%), UAS7 ≤6: 3 (7.9) n (%)
Week 7
  Imputed non-responder n (%), UAS7 = 0: 6 (15.8) n (%)
  Imputed non-responder n (%), UAS7 ≤6: 6 (15.8) n (%)
  Non-responder n (%), UAS7 = 0: 37 (97.4) n (%)
  Non-responder n (%), UAS7 ≤6: 37 (97.4) n (%)
  OR for rilzabrutinib vs. placebo, UAS7 = 0: 1.167
  OR for rilzabrutinib vs. placebo, UAS7 ≤6: 0.278
  RRD (%) for rilzabrutinib vs. placebo, UAS7 = 0: 0.4 %
  RRD (%) for rilzabrutinib vs. placebo, UAS7 ≤6: −7.3%
  Responder n (%), UAS7 = 0: 1 (2.6) n (%)
  Responder n (%), UAS7 ≤6: 1 (2.6) n (%)
Week 8
  Imputed non-responder n (%), UAS7 = 0: 7 (18.4) n (%)
  Imputed non-responder n (%), UAS7 ≤6: 7 (18.4) n (%)
  Non-responder n (%), UAS7 = 0: 37 (97.4) n (%)
  Non-responder n (%), UAS7 ≤6: 35 (92.1) n (%)
  OR for rilzabrutinib vs. placebo, UAS7 = 0: 0.527
  OR for rilzabrutinib vs. placebo, UAS7 ≤6: 0.502
  RRD (%) for rilzabrutinib vs. placebo, UAS7 = 0: −2.2 %
  RRD (%) for rilzabrutinib vs. placebo, UAS7 ≤6: −7.0%
  Responder n (%), UAS7 = 0: 1 (2.6) n (%)
  Responder n (%), UAS7 ≤6: 3 (7.9) n (%)
Week 9
  Imputed non-responder n (%), UAS7 = 0: 6 (15.8) n (%)
  Imputed non-responder n (%), UAS7 ≤6: 6 (15.8) n (%)
  Non-responder n (%), UAS7 = 0: 37 (97.4) n (%)
  Non-responder n (%), UAS7 ≤6: 35 (92.1) n (%)
  OR for rilzabrutinib vs. placebo, UAS7 = 0: 0.330
  OR for rilzabrutinib vs. placebo, UAS7 ≤6: 0.773
  RRD (%) for rilzabrutinib vs. placebo, UAS7 = 0: −4.9 %
  RRD (%) for rilzabrutinib vs. placebo, UAS7 ≤6: −2.2 %
  Responder n (%), UAS7 = 0: 1 (2.6) n (%)
  Responder n (%), UAS7 ≤6: 3 (7.9) n (%)
Week 10
  Imputed non-responder n (%), UAS7 = 0: 6 (15.8) n (%)
  Imputed non-responder n (%), UAS7 ≤6: 6 (15.8) n (%)
  Non-responder n (%), UAS7 = 0: 37 (97.4) n (%)
  Non-responder n (%), UAS7 ≤6: 36 (94.7) n (%)
  OR for rilzabrutinib vs. placebo, UAS7 = 0: 0.235
  OR for rilzabrutinib vs. placebo, UAS7 ≤6: 0.279
  RRD (%) for rilzabrutinib vs. placebo, UAS7 = 0: −7.9 %
  RRD (%) for rilzabrutinib vs. placebo, UAS7 ≤6: −11.9%
  Responder n (%), UAS7 = 0: 1 (2.6) n (%)
  Responder n (%), UAS7 ≤6: 2 (5.3) n (%)
Week 11
  Imputed non-responder n (%), UAS7 = 0: 7 (18.4) n (%)
  Imputed non-responder n (%), UAS7 ≤6: 7 (18.4) n (%)
  Non-responder n (%), UAS7 = 0: 36 (94.7) n (%)
  Non-responder n (%), UAS7 ≤6: 35 (92.1) n (%)
  OR for rilzabrutinib vs. placebo, UAS7 = 0: 1.065
  OR for rilzabrutinib vs. placebo, UAS7 ≤6: 0.418
  RRD (%) for rilzabrutinib vs. placebo, UAS7 = 0: 0.3 %
  RRD (%) for rilzabrutinib vs. placebo, UAS7 ≤6: −9.4%
  Responder n (%), UAS7 = 0: 2 (5.3) n (%)
  Responder n (%), UAS7 ≤6: 3 (7.9) n (%)
Week 12
  Imputed non-responder n (%), UAS7 = 0: 10 (26.3) n (%)
  Imputed non-responder n (%), UAS7 ≤6: 10 (26.3) n (%)
  Non-responder n (%), UAS7 = 0: 37 (97.4) n (%)
  Non-responder n (%), UAS7 ≤6: 36 (94.7) n (%)
  OR for rilzabrutinib vs. placebo, UAS7 = 0: 0.194
  OR for rilzabrutinib vs. placebo, UAS7 ≤6: 0.378
  RRD (%) for rilzabrutinib vs. placebo, UAS7 = 0: −10.0 %
  RRD (%) for rilzabrutinib vs. placebo, UAS7 ≤6: −7.6%
  Responder n (%), UAS7 = 0: 1 (2.6) n (%)

Source: US20260256792A1, “TREATMENT OF CHRONIC SPONTANEOUS URTICARIA BY ADMINISTERING (R)-2-[3-[4-AMINO-3-(2-FLUORO-4-PHENOXY-PHENYL)PYRAZOLO[3,4-D]PYRIMIDIN-1-YL]PIPERIDINE-1-CARBONYL]-4-METHYL-4-[4-(OXETAN-3-YL)PIPERAZIN-1-YL]PENT-2-ENENITRILE” (priority 2023, published 2026)
